Test results as given in PubChem BioAssay (NCI).
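Step 1: Grow cells in 96-well plates. Step 2: Expose to compound for 48 hours at 5 concentrations. Step 3: Interpolate endpoints linearly; if unreached, use highest concentration. GI50 marks 50% less growth. At the TGI there is no net growth.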

Assays:
Assay in all cases: DTP human tumour cell line panel, 48 h
COLO 205 colon = test system: COLO 205 colon
EKVX NSCLC = test system: EKVX NSCLC
HCC-2998 colon = test system: HCC-2998 colon
HCT-116 colon = test system: HCT-116 colon
MALME-3M melanoma = test system: MALME-3M melanoma
MOLT-4 leukemia = test system: MOLT-4 leukemia
NCI-H23 lung = test system: NCI-H23 lung
NCI-H522 lung = test system: NCI-H522 lung
SF-268 CNS = test system: SF-268 CNS
TK-10 renal = test system: TK-10 renal

Q: With O=C1C(=O)c2c(nc3ccc(Br)cn23)-c2ccccc21 as the compound, how does the GI50 (COLO 205 colon) read?
A: 1.78 µM

Q: And the TGI (COLO 205 colon)?
A: 3.55 µM

Q: And the GI50 (EKVX NSCLC)?
A: 1.54 µM

Q: And the TGI (EKVX NSCLC)?
A: 3.31 µM

Q: What about the GI50 (HCC-2998 colon) of the same compound?
A: 1.93 µM

Q: And the TGI (HCC-2998 colon)?
A: 3.51 µM

Q: And the GI50 (HCT-116 colon)?
A: 0.314 µM

Q: And the TGI (HCT-116 colon)?
A: 1.2 µM

Q: What about the GI50 (MALME-3M melanoma) of the same compound?
A: 0.19 µM

Q: And the TGI (MALME-3M melanoma)?
A: 0.371 µM

Q: And the GI50 (MOLT-4 leukemia)?
A: 0.447 µM

Q: What about the TGI (MOLT-4 leukemia) of the same compound?
A: 2.22 µM

Q: What about the GI50 (NCI-H23 lung) of the same compound?
A: 0.372 µM

Q: And the TGI (NCI-H23 lung)?
A: 2.51 µM

Q: And the GI50 (NCI-H522 lung)?
A: 0.588 µM

Q: And the TGI (NCI-H522 lung)?
A: 2.22 µM

Q: What about the GI50 (SF-268 CNS) of the same compound?
A: 0.543 µM

Q: What about the TGI (SF-268 CNS) of the same compound?
A: 1.97 µM

Q: What about the GI50 (TK-10 renal) of the same compound?
A: 2.28 µM

Q: And the TGI (TK-10 renal)?
A: 3.78 µM

Q: Cc1cc(O)ccc1C1=NN(c2ccc(S(C)(=O)=O)cc2)C(=O)CC1 was tested. Which GI50 (COLO 205 colon) did it give?
A: 6.62 µM

Q: And the TGI (COLO 205 colon)?
A: 74.4 µM

Q: What about the GI50 (EKVX NSCLC) of the same compound?
A: 57.9 µM

Q: And the TGI (EKVX NSCLC)?
A: > 100 µM

Q: And the GI50 (HCC-2998 colon)?
A: 46.7 µM

Q: And the TGI (HCC-2998 colon)?
A: > 100 µM

Q: And the GI50 (HCT-116 colon)?
A: 3.78 µM

Q: What about the TGI (HCT-116 colon) of the same compound?
A: > 100 µM

Q: What about the GI50 (MALME-3M melanoma) of the same compound?
A: 5.37 µM

Q: What about the TGI (MALME-3M melanoma) of the same compound?
A: > 100 µM

Q: And the GI50 (MOLT-4 leukemia)?
A: 14.3 µM

Q: And the TGI (MOLT-4 leukemia)?
A: > 100 µM

Q: What about the GI50 (NCI-H23 lung) of the same compound?
A: 38.5 µM

Q: And the TGI (NCI-H23 lung)?
A: > 100 µM

Q: What about the GI50 (NCI-H522 lung) of the same compound?
A: 2.53 µM

Q: What about the TGI (NCI-H522 lung) of the same compound?
A: 8.6 µM

Q: And the GI50 (SF-268 CNS)?
A: 40 µM

Q: And the TGI (SF-268 CNS)?
A: > 100 µM

Q: And the GI50 (TK-10 renal)?
A: 80.5 µM

Q: What about the TGI (TK-10 renal) of the same compound?
A: > 100 µM

Q: Which GI50 (COLO 205 colon) does the source give for Clc1ccc2c(c1)N(CCCN1CCCC1)c1ccccc1S2 here?
A: 2.5 µM

Q: What about the TGI (COLO 205 colon) of the same compound?
A: 7.34 µM

Q: What about the GI50 (EKVX NSCLC) of the same compound?
A: 8 µM

Q: What about the TGI (EKVX NSCLC) of the same compound?
A: 21.6 µM

Q: What about the GI50 (HCC-2998 colon) of the same compound?
A: 4.41 µM

Q: What about the TGI (HCC-2998 colon) of the same compound?
A: 15.5 µM

Q: What about the GI50 (HCT-116 colon) of the same compound?
A: 3.19 µM

Q: What about the TGI (HCT-116 colon) of the same compound?
A: 12.1 µM

Q: And the GI50 (MALME-3M melanoma)?
A: 3.98 µM

Q: And the TGI (MALME-3M melanoma)?
A: 18.5 µM

Q: And the GI50 (MOLT-4 leukemia)?
A: 4.09 µM

Q: And the TGI (MOLT-4 leukemia)?
A: 15.9 µM

Q: What about the GI50 (NCI-H23 lung) of the same compound?
A: 10.2 µM

Q: What about the TGI (NCI-H23 lung) of the same compound?
A: 24 µM

Q: What about the GI50 (NCI-H522 lung) of the same compound?
A: 2.23 µM

Q: What about the TGI (NCI-H522 lung) of the same compound?
A: 7.11 µM

Q: And the GI50 (SF-268 CNS)?
A: 5.75 µM

Q: What about the TGI (SF-268 CNS) of the same compound?
A: 20.7 µM

Q: What about the GI50 (TK-10 renal) of the same compound?
A: 13 µM

Q: And the TGI (TK-10 renal)?
A: 26 µM

Q: How did the TGI (COLO 205 colon) turn out when CC1(C)C(O)C[C@@H](O)[C@@]2(C)C1CC[C@]1(C)C2C[C@@H](O)[C@@H]2C([C@@]3(C)CC[C@@H](C(C)(C)O)O3)CCC21C (stereo not given in full) was run?
A: 30 µM

Q: What about the TGI (EKVX NSCLC) of the same compound?
A: 53.9 µM

Q: What about the TGI (HCC-2998 colon) of the same compound?
A: 31.4 µM

Q: And the TGI (HCT-116 colon)?
A: 30.9 µM

Q: And the TGI (MALME-3M melanoma)?
A: 31.8 µM

Q: And the TGI (MOLT-4 leukemia)?
A: 67.7 µM

Q: What about the TGI (NCI-H23 lung) of the same compound?
A: 35.3 µM

Q: And the TGI (NCI-H522 lung)?
A: 27.8 µM

Q: And the TGI (SF-268 CNS)?
A: 32 µM

Q: And the TGI (TK-10 renal)?
A: > 62.1 µM

Q: For COc1ccc(C2CC(c3cc(C)ccc3O)=NC(N)=N2)cc1 (stereo not given), which TGI (COLO 205 colon) is on record?
A: > 100 µM

Q: And the TGI (EKVX NSCLC)?
A: > 100 µM

Q: And the TGI (HCC-2998 colon)?
A: > 100 µM

Q: And the TGI (HCT-116 colon)?
A: > 100 µM

Q: And the TGI (MALME-3M melanoma)?
A: > 100 µM

Q: What about the TGI (MOLT-4 leukemia) of the same compound?
A: > 100 µM

Q: And the TGI (NCI-H23 lung)?
A: > 100 µM

Q: And the TGI (NCI-H522 lung)?
A: > 100 µM

Q: What about the TGI (SF-268 CNS) of the same compound?
A: > 100 µM

Q: What about the TGI (TK-10 renal) of the same compound?
A: > 100 µM

Q: NC(=O)c1ccc(NN=O)nc1 was tested. Which TGI (COLO 205 colon) did it give?
A: > 100 µM

Q: What about the TGI (EKVX NSCLC) of the same compound?
A: > 100 µM

Q: What about the TGI (HCC-2998 colon) of the same compound?
A: > 100 µM

Q: And the TGI (HCT-116 colon)?
A: > 100 µM

Q: And the TGI (MALME-3M melanoma)?
A: > 100 µM

Q: What about the TGI (MOLT-4 leukemia) of the same compound?
A: > 100 µM

Q: And the TGI (NCI-H23 lung)?
A: > 100 µM

Q: What about the TGI (NCI-H522 lung) of the same compound?
A: > 100 µM

Q: What about the TGI (SF-268 CNS) of the same compound?
A: > 100 µM

Q: And the TGI (TK-10 renal)?
A: > 100 µM

Q: CNC(=O)OCc1c2ccncc2c(C)c2c1[nH]c1ccccc12 was tested. Which TGI (COLO 205 colon) did it give?
A: 1.82 µM

Q: What about the TGI (EKVX NSCLC) of the same compound?
A: 2.24 µM

Q: What about the TGI (HCC-2998 colon) of the same compound?
A: 1.08 µM

Q: What about the TGI (HCT-116 colon) of the same compound?
A: 12.7 µM

Q: What about the TGI (MALME-3M melanoma) of the same compound?
A: 1.24 µM

Q: What about the TGI (MOLT-4 leukemia) of the same compound?
A: > 100 µM

Q: And the TGI (NCI-H23 lung)?
A: 0.822 µM

Q: And the TGI (NCI-H522 lung)?
A: 0.272 µM

Q: What about the TGI (SF-268 CNS) of the same compound?
A: 1.65 µM

Q: And the TGI (TK-10 renal)?
A: 0.968 µM

Q: Which results are given for Cc1cc2c(cc1C)[n+](=O)c(C(=O)C/C(=N/OCCCc1ccccc1)C(=O)Nc1cc(Cl)ccc1Cl)c(C)n2[O-]?
A: TGI (COLO 205 colon): > 100 µM; TGI (EKVX NSCLC): > 100 µM; TGI (HCC-2998 colon): > 100 µM; TGI (HCT-116 colon): > 100 µM; TGI (MALME-3M melanoma): > 100 µM; TGI (MOLT-4 leukemia): > 100 µM; TGI (NCI-H23 lung): > 100 µM; TGI (NCI-H522 lung): > 100 µM; TGI (SF-268 CNS): > 100 µM; TGI (TK-10 renal): > 100 µM

Q: Which results are given for CS(=O)(=O)Nc1ccc(-c2cc(-c3ccccc3)cc(C(N)=O)c2N)cc1?
A: GI50 (COLO 205 colon): > 25 µM; TGI (COLO 205 colon): > 25 µM; GI50 (EKVX NSCLC): > 25 µM; TGI (EKVX NSCLC): > 25 µM; GI50 (HCC-2998 colon): > 25 µM; TGI (HCC-2998 colon): > 25 µM; GI50 (HCT-116 colon): > 25 µM; TGI (HCT-116 colon): > 25 µM; GI50 (MALME-3M melanoma): > 25 µM; TGI (MALME-3M melanoma): > 25 µM; GI50 (MOLT-4 leukemia): 19.5 µM; TGI (MOLT-4 leukemia): > 25 µM; GI50 (NCI-H23 lung): > 25 µM; TGI (NCI-H23 lung): > 25 µM; GI50 (NCI-H522 lung): 15.3 µM; TGI (NCI-H522 lung): > 25 µM; GI50 (SF-268 CNS): > 25 µM; TGI (SF-268 CNS): > 25 µM; GI50 (TK-10 renal): > 25 µM; TGI (TK-10 renal): > 25 µM

Q: Which TGI (COLO 205 colon) does the source give for CC1CC(=O)Nc2ccccc2N1C(=O)CN1CCC(CCCCN(C)C)CC1 (stereo not given) here?
A: > 100 µM

Q: What about the TGI (EKVX NSCLC) of the same compound?
A: > 100 µM

Q: What about the TGI (HCC-2998 colon) of the same compound?
A: > 100 µM

Q: What about the TGI (HCT-116 colon) of the same compound?
A: > 100 µM

Q: What about the TGI (MALME-3M melanoma) of the same compound?
A: > 100 µM

Q: And the TGI (MOLT-4 leukemia)?
A: > 100 µM

Q: And the TGI (NCI-H23 lung)?
A: > 100 µM

Q: And the TGI (NCI-H522 lung)?
A: > 100 µM

Q: And the TGI (SF-268 CNS)?
A: > 100 µM

Q: What about the TGI (TK-10 renal) of the same compound?
A: > 100 µM

Q: Which results are given for C[C@H](Nc1ncnc2nc[nH]c12)c1cc2ccc(F)cc2nc1-c1ccccn1?
A: GI50 (COLO 205 colon): > 100 µM; TGI (COLO 205 colon): > 100 µM; GI50 (EKVX NSCLC): > 70.7 µM; TGI (EKVX NSCLC): > 100 µM; GI50 (HCC-2998 colon): > 100 µM; TGI (HCC-2998 colon): > 100 µM; GI50 (HCT-116 colon): > 100 µM; TGI (HCT-116 colon): > 100 µM; GI50 (MALME-3M melanoma): > 87.8 µM; TGI (MALME-3M melanoma): > 100 µM; GI50 (MOLT-4 leukemia): 52.2 µM; TGI (MOLT-4 leukemia): > 100 µM; GI50 (NCI-H23 lung): > 100 µM; TGI (NCI-H23 lung): > 100 µM; GI50 (NCI-H522 lung): > 54.1 µM; TGI (NCI-H522 lung): > 100 µM; GI50 (SF-268 CNS): > 100 µM; TGI (SF-268 CNS): > 100 µM; GI50 (TK-10 renal): 47.4 µM; TGI (TK-10 renal): > 100 µM
